# Values quoted from earlier work in article PMC4346355 (Journal of computer-aided molecular design, 2014).
# Where two headings read alike, the source gives them in different places.
# Tests used:
# [1] = test system: interaction of LEDGF with integrase
# [2] = test system: strand transfer activity of HIV integrase
# [3] = test system: HIV-1 infection of MT-4 cells; details: read-out: EC50 HIV-1 infection of MT-4 cells
# [4] = test system: HIV-1 infection of PBMC cells; details: read-out: EC50 HIV-1 infection of PBMC cells
# [5] = target: HIV integrase catalytic core domain core4H (additional Y131D mutation); details: read-out: SPR KD (core4H)
# [6] = target: LEDGF-integrase interaction; details: assay not named
smiles,measurement,setting,value
COc1cccc2c1c(/C(O)=C/C(=O)C(=O)O)cn2Cc1ccc(F)cc1 [CHI-1043],inhibition in AlphaScreen assay for binding at the LEDGF site,[1],36 µM
same,inhibition in active site directed strand transfer assay,[2],0.14 µM
CCCC(C(=O)O)c1c(C)nc2ccc(Cl)cc2c1-c1ccccc1 (centres unmarked) [CX04328],IC50,"[1]; assay not given, series assayed in AlphaScreen",1.37 µM
same,IC50,[2]; read-out: IC50 inhibition of strand transfer activity,19.5 µM
same,EC50,[3],2.73 µM
same,EC50,[4],3.45 µM
C=CCN(Cc1ccccc1C(=O)NCc1ccccc1)Cc1ccc2c(c1C(=O)O)OCO2 [Compound 3ZSX],Kd,[5],1060 µM
CN(Cc1ccccc1C(=O)NCC1CCCCC1)Cc1ccc2c(c1C(=O)O)OCO2 [Compound 3ZSY],Kd,[5],> 2000 µM
CC[C@H](C)NC(=O)c1ccccc1CN(C)Cc1ccc2c(c1C(=O)O)OCO2 [Compound 3ZSZ],Kd,[5],> 2000 µM
"O=C(NCC1CCCCC1)c1cc(S(=O)(=O)N2CCCCC2)cc(O)c1O [N-(cyclohexylmethyl)-2,3-dihydroxy-5-(piperidin-1-ylsulfonyl) benzamide]",IC50,[2]; read-out: IC50 strand transfer,19 µM
same,IC50,[6],8 µM
